Assay results as given in US20260085081A1, “PHOSPHATIDYLAMINE COMPOUNDS INCLUDING A PLURALITY OF TERTIARY AMINO GROUP STRUCTURES AND COMPOSITIONS THEREOF” (PEKING UNIVERSITY, priority 2022, published 2026).

Legend:
[1] = Summary of the strongest expressions over the administration routes; settings: strongest level of the three administrations
Source text: (§1) Finally, the expression levels of lipid nanoparticles with a plurality of tertiary amine groups from the embodiments of the present disclosure after intramuscular injection, white adipocyte administration, and intraperitoneal injection are summarized, and compared with lipid nanoparticles prepared from commercially available cationic lipids MC3 and SM102. […] However, the expression rates of the phosphatidylamine lipids with a plurality of tertiary amine groups from embodiments of the present disclosure are higher than that of SM102.

[2] = test system: white adipocyte; assay: White adipocyte administration, expression relative to SM102; type: cell-based; settings: for White adipocyte administration (PL/SM102) expression strength level: ratio of expression PL/SM102; for expression compared with control SM102: white adipocyte administration
Source text: as §1

[3] = test system: adipose tissue; assay: Intraperitoneal injection of Fluc-mRNA LNPs, expression and distribution; type: in vivo, mice; settings: for Intraperitoneal injection (PL/SM102) expression strength level: ratio of expression PL/SM102; for expression compared with control SM102: intraperitoneal injection
Procedure: FIG. 10 illustrates the effect of Fluc-mRNA LNPs composed of different structural cationic lipids on the mRNA delivery efficiency after intraperitoneal administration according to some embodiments of the present disclosure. Targeting and expression of PL lipids on adipose tissue after intraperitoneal administration is also evaluated. […] That is to say, the PL lipid structure with the plurality of tertiary amino group structures may enhance the selective targeting of visceral adipocytes. […]
as §1

[4] = test system: Fluc-mRNA (luciferase expression); assay: In vivo transfection efficiency of Fluc-mRNA lipid nanoparticles after intramuscular injection; design: species or system mice; settings: for Intramuscular injection (PL/MC3) expression strength level: ratio of expression PL/MC3; for in vivo transfection (expression, FIG. 5): weight ratio lipid nanoparticle/RNA 10:1, DOPE or DSPC group; for in vivo transfection (expression, FIG. 5) / expression in vivo compared with control MC3: 3 μg Fluc-mRNA/mouse; for expression in vivo compared with control MC3: DOPE group, weight ratio 10:1
Procedure: 6 h after intramuscular injection of mRNA LNPs, mice were injected intraperitoneally with 0.2 mL […] (20 mg/mL PBS solution). After 10 min, mice were anesthetized with isoflurane in oxygen in a ventilated anesthesia room and imaged with an imaging system (IVIS, PerkinElmer), and luminescence was quantified using Living Image software (PerkinElmer).

| Compound | Summary of the strongest expressions [1] | White adipocyte administration (PL/SM102) expression strength level [2] | Intraperitoneal injection (PL/SM102) expression strength level [3] | expression compared with control SM102 [2] | Intramuscular injection (PL/MC3) expression strength level [4] | in vivo transfection (expression, FIG. 5) [4] | expression in vivo compared with control MC3 [4] | expression compared with control SM102 [3] |
| --- | --- | --- | --- | --- | --- | --- | --- | --- |
| CCCCCCCCCCC(CCCCCCCCCC)CN(CCCN1CCN(CCCNP(=O)(OCCCCCCCC(=O)OC(CCCCCCCC)CCCCCCCC)OCCCCCCCC(=O)OC(CCCCCCCC)CCCCCCCC)CC1)CC(CCCCCCCCCC)CCCCCCCCCC [PL36] | C (C: ≥0.1 and <1) | C (C: ≥0.1 and <1) | – | – | – | – | – | – |
| CCCCCCCCCCCCN(CCCCCCCCCCCC)CCCN1CCN(CCCNP(=O)(OCCOC(=O)CC(C)CCCC(C)CCCC(C)CCCC(C)C)OCCOC(=O)CC(C)CCCC(C)CCCC(C)CCCC(C)C)CC1 (stereo not drawn) [PL96] | C (C: ≥0.1 and <1) | – | C (C: ≥0.1 and <1) | – | – | – | – | – |
| CCCCC/C=C\C/C=C\CCCCCCCCOP(=O)(NCCCN(CCCCCCCCCCCC)CCc1ccc(CCN(C)C)cc1)OCCCCCCCC/C=C\C/C=C\CCCCC [PL21] | B (B: ≥1 and <2) | B (B: ≥1 and <2) | C (C: ≥0.1 and <1) | superior to that of the control SM102 | – | – | – | – |
| CCCCCCCCC(CCCCCCCC)OC(=O)CCCCCCCOP(=O)(NCCCN1CCN(CCCN(CCCCCCCC(=O)OC(CCCCCCCC)CCCCCCCC)CCCCCCCC(=O)OC(CCCCCCCC)CCCCCCCC)CC1)OCCCCCCCC(=O)OC(CCCCCCCC)CCCCCCCC [PL38] | C (C: ≥0.1 and <1) | C (C: ≥0.1 and <1) | D (D: <0.1) | – | – | – | – | – |
| CC/C=C\C/C=C\C/C=C\C/C=C\C/C=C\CCCC(=O)OCCCCCCOP(=O)(NCCCN1CCN(CCCN(CCCCCCCCCCCC)CCCCCCCCCCCC)CC1)OCCCCCCOC(=O)CCC/C=C\C/C=C\C/C=C\C/C=C\C/C=C\CC [PL60] | C (C: ≥0.1 and <1) | C (C: ≥0.1 and <1) | D (D: <0.1) | – | – | – | – | – |
| CCCCCCCC/C=C\CCOC(=O)CCCOP(=O)(NCCN(CCCCCCCCCCCC)CCCN(C)C)OCCCC(=O)OCC/C=C\CCCCCCCC [PL13] | A (A: ≥2) | D (D: <0.1) | – | – | A (A: ≥2) | expressed | – | – |
| CCCCC/C=C\C/C=C\CCCCCCCCOP(=O)(NCCCN1CCN(CCCN(CCCCCCC(=O)OC(CC)CCCCCCCC)CCCCCCC(=O)OC(CC)CCCCCCCC)CC1)OCCCCCCCC/C=C\C/C=C\CCCCC (stereo not drawn) [PL29] | A (A: ≥2) | B (B: ≥1 and <2) | – | superior to that of the control SM102 | A (A: ≥2) | expressed | better than that of control MC3 | – |
| CCCCC/C=C\C/C=C\CCCCCCCCOP(=O)(NCCCN1CCN(CCCN(CCCCCCC(=O)OC(CCCCCCCC)CCCCCCCC)CCCCCCC(=O)OC(CCCCCCCC)CCCCCCCC)CC1)OCCCCCCCC/C=C\C/C=C\CCCCC [PL28] | A (A: ≥2) | C (C: ≥0.1 and <1) | – | – | A (A: ≥2) | expressed | – | – |
| CCCCCCCCCCC(O)CN(CCCN1CCN(CCCNP(=O)(OCCCCCCCCOC(=O)C(CC)CCCC)OCCCCCCCCOC(=O)C(CC)CCCC)CC1)CC(O)CCCCCCCCCC (stereo not drawn) [PL78] | B (B: ≥1 and <2) | B (B: ≥1 and <2) | B (B: ≥1 and <2) | superior to that of the control SM102 | – | – | – | superior to that of the control SM102 |
| CCCCCCCCCCCCN(CCCCCCCCCCCC)CCCN1CCN(CCCNP(=O)(OCC(CCCCCC)CCCCCCCC)OCC(CCCCCC)CCCCCCCC)CC1 (stereo not drawn) [PL33] | A (A: ≥2) | – | – | – | A (A: ≥2) | expressed | – | – |
| CCCCC/C=C\C/C=C\CCCCCCCCOP(=O)(NCCCN(CC(O)CCCCCCCCCC)CC(O)CN(CC(O)CCCCCCCCCC)CC(O)CCCCCCCCCC)OCCCCCCCC/C=C\C/C=C\CCCCC (stereo not drawn) [PL19] | C (C: ≥0.1 and <1) | C (C: ≥0.1 and <1) | D (D: <0.1) | – | – | – | – | – |
| CCCCC/C=C\C/C=C\CCCCCCCCOP(=O)(NCCCN(CCCCCCCCCCCC)CCc1ccc(CCN(CCCCCCCCCCCC)CCCCCCCCCCCC)cc1)OCCCCCCCC/C=C\C/C=C\CCCCC [PL22] | C (C: ≥0.1 and <1) | C (C: ≥0.1 and <1) | D (D: <0.1) | – | – | – | – | – |
| CCCCC/C=C\C/C=C\CCCCCCCCOP(=O)(NCCCN1CCN(CCCNCC(CCCCCC)CCCCCCCC)CC1)OCCCCCCCC/C=C\C/C=C\CCCCC (stereo not drawn) [PL44] | C (C: ≥0.1 and <1) | C (C: ≥0.1 and <1) | – | – | C (C: ≥0.1 and <1) | – | – | – |
| CCCCC/C=C\C/C=C\CCCCCCCCOP(=O)(NCCCN1CCN(CCCN(CCCCCCCCCCCC)CCCCCCCCCCCC)CC1)OCCCCCCCC(=O)OC(CC)CCCCCCCC (stereo not drawn) [PL103] | A (A: ≥2) | – | – | – | A (A: ≥2) | expressed | – | – |
| CCCCCCCCCCCCN(CCCCCCCCCCCC)CCCN1CCN(CCCNP(=O)(OCCCCCCCC(=O)OC(CCCCCCCC)CCCCCCCC)OCCCCCCCC(=O)OC(CCCCCCCC)CCCCCCCC)CC1 [PL31] | A (A: ≥2) | D (D: <0.1) | – | – | A (A: ≥2) | expressed | better than that of control MC3 | – |
| CCCCC/C=C\C/C=C\CCCCCCCCOP(=O)(NCCCN1CCN(CCCN(CCCCCCCCCCCC)CCCCCCCCCCCC)CC1)OCCCCCCCC(=O)OC(CCCCCCCC)CCCCCCCC (stereo not drawn) [PL30] | A (A: ≥2) | D (D: <0.1) | – | – | A (A: ≥2) | expressed | better than that of control MC3 | – |
| CCCCCCCCCCCCN(CCCCCCCCCCCC)CCCN1CCN(CCCNP(=O)(OCCC(C)CCCC(C)CCCC(C)CCCC(C)C)OCCC(C)CCCC(C)CCCC(C)CCCC(C)C)CC1 (stereo not drawn) [PL95] | A (A: ≥2) | – | A (A: ≥2) | – | – | – | – | superior to that of the control SM102 |
| CCCCC/C=C\C/C=C\C/C=C\CCCCC(=O)OCCOP(=O)(NCCCN1CCN(CCCN(CCCCCCCCCCCC)CCCCCCCCCCCC)CC1)OCCOC(=O)CCCC/C=C\C/C=C\C/C=C\CCCCC [PL93] | A (A: ≥2) | – | A (A: ≥2) | – | – | – | – | superior to that of the control SM102 |
| CCCCCCCCCCCCN(CCCCCCCCCCCC)CCCN1CCN(CCCNP(=O)(OCCCCCCCC(=O)OC(CC)CCCCCCCC)OCCCCCCCC(=O)OC(CC)CCCCCCCC)CC1 (stereo not drawn) [PL32] | A (A: ≥2) | – | – | – | A (A: ≥2) | expressed | – | – |
| CCCCCCCCC(CCCCCC)CNCCCN1CCN(CCCNP(=O)(OCC(CCCCCC)CCCCCCCC)OCC(CCCCCC)CCCCCCCC)CC1 (stereo not drawn) [PL45] | C (C: ≥0.1 and <1) | C (C: ≥0.1 and <1) | – | – | C (C: ≥0.1 and <1) | – | – | – |
| CCCCC/C=C\C/C=C\C/C=C\CCCCCOP(=O)(NCCCN1CCN(CCCN(CCCCCCCCCCCC)CCCCCCCCCCCC)CC1)OCCCCC/C=C\C/C=C\C/C=C\CCCCC [PL94] | A (A: ≥2) | – | A (A: ≥2) | – | – | – | – | superior to that of the control SM102 |
| CCCCCCCCCCC(CCCCCCCCCC)CNCCCN1CCN(CCCNP(=O)(OCCCCCCCC(=O)OC(CCCCCCCC)CCCCCCCC)OCCCCCCCC(=O)OC(CCCCCCCC)CCCCCCCC)CC1 [PL41] | A (A: ≥2) | C (C: ≥0.1 and <1) | – | – | A (A: ≥2) | expressed | – | – |
| CCCCCCCCCCCCN(CCCCCCCCCCCC)CCCN1CCN(CCCNP(=O)(OCCCCCCCC(=O)OC(C)CC(=O)OCC)OCCCCCCCC(=O)OC(C)CC(=O)OCC)CC1 (stereo not drawn) [PL97] | C (C: ≥0.1 and <1) | – | C (C: ≥0.1 and <1) | – | – | – | – | – |
| CCCCC/C=C\C/C=C\CCCCCCCCOP(=O)(NCCN1CCN(CCOC(=O)CCN(CCCCCCCCCCCC)CCCCCCCCCCCC)CC1)OCCCCCCCC/C=C\C/C=C\CCCCC [PL26] | A (A: ≥2) | C (C: ≥0.1 and <1) | – | – | A (A: ≥2) | expressed | better than that of control MC3 | – |
